Source: patent publication US12479847B2 (DANA-FARBER CANCER INSTITUTE, INC., priority 2019, dated 2025)
Like-named read-outs stand apart in the source and are kept apart here.

Assays:
Test in all cases: KINOMEscan (ScanMAX) kinase profiling
Format in all cases: binding
panel of 468 kinases [1] = biological target: T1, panel of 468 kinases (Homo sapiens, UniProt P00533, T790M); settings: EGFR(T790M); 1 μM; read-out: % control
T1 construct: purchased KINOMEscan (ScanMAX) service

panel of 468 kinases [2] = biological target: T2, panel of 468 kinases (Homo sapiens, UniProt Q9H2X6); settings: HIPK2; 1 μM; read-out: % control
T2 construct: purchased KINOMEscan (ScanMAX) service
T2 sequence (Q9H2X6 whole entry): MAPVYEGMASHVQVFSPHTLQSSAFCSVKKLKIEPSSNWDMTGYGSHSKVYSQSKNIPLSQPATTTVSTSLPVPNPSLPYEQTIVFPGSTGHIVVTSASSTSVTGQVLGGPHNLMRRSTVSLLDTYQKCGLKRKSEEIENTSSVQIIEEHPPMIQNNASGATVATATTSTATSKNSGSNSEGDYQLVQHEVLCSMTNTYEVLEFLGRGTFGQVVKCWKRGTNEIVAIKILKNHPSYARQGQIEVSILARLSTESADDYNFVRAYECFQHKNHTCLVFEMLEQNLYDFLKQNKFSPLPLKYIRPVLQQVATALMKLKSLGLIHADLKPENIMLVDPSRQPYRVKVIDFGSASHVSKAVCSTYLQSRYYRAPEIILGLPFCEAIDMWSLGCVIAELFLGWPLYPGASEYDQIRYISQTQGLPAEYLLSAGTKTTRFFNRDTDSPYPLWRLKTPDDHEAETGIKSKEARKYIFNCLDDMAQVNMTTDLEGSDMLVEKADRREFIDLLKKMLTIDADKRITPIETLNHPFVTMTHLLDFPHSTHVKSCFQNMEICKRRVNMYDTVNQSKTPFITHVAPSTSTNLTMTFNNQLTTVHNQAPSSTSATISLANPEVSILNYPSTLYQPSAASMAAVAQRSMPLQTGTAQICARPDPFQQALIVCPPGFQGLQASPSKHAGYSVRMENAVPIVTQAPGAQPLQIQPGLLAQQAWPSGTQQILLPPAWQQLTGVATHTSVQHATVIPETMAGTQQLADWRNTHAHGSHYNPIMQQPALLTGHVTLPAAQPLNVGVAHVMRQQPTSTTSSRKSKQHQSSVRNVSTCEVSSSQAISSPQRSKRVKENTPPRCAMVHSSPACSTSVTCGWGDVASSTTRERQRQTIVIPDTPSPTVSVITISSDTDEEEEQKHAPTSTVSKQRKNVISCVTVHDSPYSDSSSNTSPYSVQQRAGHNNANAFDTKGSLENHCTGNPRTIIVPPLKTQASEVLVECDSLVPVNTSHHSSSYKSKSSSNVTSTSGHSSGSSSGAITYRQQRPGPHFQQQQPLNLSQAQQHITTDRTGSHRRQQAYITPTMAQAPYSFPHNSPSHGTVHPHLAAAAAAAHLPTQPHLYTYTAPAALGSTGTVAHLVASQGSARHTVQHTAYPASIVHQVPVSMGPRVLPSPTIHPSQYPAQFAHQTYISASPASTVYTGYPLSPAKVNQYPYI

panel of 468 kinases [3] = biological target: T3, panel of 468 kinases (Homo sapiens, UniProt Q9Y4K4); settings: MAP4K5; 1 μM; read-out: % control
T3 construct: purchased KINOMEscan (ScanMAX) service
T3 sequence (Q9Y4K4 whole entry): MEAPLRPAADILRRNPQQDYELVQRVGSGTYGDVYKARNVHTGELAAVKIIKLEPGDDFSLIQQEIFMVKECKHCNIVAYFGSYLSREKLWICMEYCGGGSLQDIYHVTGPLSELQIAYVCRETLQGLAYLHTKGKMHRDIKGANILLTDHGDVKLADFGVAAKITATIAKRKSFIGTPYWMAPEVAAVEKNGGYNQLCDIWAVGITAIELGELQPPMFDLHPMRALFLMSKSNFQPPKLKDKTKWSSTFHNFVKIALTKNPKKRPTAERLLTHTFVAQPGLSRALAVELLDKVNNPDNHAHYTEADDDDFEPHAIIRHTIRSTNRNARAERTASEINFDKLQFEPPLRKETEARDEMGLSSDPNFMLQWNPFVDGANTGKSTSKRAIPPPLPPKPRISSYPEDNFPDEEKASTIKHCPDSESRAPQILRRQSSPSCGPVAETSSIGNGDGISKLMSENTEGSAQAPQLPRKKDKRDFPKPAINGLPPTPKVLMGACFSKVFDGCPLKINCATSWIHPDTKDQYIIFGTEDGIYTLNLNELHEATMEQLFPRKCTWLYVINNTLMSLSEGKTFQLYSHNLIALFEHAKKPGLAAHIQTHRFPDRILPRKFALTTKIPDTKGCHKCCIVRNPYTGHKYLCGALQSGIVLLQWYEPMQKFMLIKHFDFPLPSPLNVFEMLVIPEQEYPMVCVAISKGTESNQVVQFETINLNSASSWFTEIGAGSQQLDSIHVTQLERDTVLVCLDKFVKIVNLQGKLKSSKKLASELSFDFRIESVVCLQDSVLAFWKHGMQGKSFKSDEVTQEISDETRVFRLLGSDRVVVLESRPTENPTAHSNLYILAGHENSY

panel of 468 kinases [4] = biological target: T4, panel of 468 kinases (Homo sapiens, UniProt O75582); settings: 1 μM, read-out: % control
T4 construct: purchased KINOMEscan (ScanMAX) service
T4 sequence (O75582 whole entry): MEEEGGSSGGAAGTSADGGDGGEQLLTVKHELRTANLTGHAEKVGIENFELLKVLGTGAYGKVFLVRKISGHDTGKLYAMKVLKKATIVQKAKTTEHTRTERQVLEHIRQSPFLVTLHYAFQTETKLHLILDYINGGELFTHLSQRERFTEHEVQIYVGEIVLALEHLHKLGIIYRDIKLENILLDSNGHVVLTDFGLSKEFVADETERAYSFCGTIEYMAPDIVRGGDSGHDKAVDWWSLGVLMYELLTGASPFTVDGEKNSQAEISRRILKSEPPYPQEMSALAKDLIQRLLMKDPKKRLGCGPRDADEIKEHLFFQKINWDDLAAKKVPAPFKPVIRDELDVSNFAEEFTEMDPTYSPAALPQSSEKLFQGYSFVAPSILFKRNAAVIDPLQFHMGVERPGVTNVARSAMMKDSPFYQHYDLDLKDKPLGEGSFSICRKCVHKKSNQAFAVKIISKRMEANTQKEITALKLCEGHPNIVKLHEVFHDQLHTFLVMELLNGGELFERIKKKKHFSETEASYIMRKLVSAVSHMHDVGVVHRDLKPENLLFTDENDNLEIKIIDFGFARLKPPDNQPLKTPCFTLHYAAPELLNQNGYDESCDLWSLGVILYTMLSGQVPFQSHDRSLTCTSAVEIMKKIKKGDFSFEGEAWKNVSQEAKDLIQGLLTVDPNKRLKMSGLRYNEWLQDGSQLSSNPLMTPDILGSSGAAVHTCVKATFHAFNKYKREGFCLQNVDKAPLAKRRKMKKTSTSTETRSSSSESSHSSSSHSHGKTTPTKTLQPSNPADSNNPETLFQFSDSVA

panel of 468 kinases [5] = biological target: T5, panel of 468 kinases (Homo sapiens, UniProt O75716); settings: STK16; 1 μM; read-out: % control
T5 construct: purchased KINOMEscan (ScanMAX) service
T5 sequence (O75716 whole entry): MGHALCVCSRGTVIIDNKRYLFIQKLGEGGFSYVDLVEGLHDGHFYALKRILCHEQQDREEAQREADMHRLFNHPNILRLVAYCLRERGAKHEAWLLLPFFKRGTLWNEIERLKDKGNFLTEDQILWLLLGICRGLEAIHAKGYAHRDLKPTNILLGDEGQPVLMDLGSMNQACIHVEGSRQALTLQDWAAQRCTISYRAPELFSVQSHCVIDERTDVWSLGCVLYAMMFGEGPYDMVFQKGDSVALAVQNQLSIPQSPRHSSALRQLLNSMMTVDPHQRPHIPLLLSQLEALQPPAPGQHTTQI

panel of 468 kinases [6] = biological target: T6, panel of 468 kinases (Homo sapiens, UniProt O43318); settings: TAK1; 1 μM; read-out: % control
T6 construct: purchased KINOMEscan (ScanMAX) service
T6 sequence (O43318 1-606): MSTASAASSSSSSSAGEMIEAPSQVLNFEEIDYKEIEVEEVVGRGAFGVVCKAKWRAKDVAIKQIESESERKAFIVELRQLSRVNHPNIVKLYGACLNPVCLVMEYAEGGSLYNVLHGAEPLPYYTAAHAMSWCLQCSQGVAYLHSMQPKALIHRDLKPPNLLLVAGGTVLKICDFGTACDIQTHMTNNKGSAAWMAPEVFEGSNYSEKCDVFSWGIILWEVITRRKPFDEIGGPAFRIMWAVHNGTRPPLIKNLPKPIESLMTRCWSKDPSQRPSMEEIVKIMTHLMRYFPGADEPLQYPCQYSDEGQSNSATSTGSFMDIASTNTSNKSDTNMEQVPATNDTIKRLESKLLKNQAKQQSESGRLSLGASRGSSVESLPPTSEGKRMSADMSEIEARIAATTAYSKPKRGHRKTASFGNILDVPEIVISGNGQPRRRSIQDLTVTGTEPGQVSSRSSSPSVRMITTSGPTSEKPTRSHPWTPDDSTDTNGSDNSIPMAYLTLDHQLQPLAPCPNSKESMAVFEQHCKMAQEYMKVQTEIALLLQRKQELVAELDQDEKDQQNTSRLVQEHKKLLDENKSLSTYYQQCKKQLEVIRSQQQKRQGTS

panel of 468 kinases [7] = biological target: T7, panel of 468 kinases (Homo sapiens, UniProt Q16513); settings: PKN2; 1 μM; read-out: % control
T7 construct: purchased KINOMEscan (ScanMAX) service
T7 sequence (Q16513 whole entry): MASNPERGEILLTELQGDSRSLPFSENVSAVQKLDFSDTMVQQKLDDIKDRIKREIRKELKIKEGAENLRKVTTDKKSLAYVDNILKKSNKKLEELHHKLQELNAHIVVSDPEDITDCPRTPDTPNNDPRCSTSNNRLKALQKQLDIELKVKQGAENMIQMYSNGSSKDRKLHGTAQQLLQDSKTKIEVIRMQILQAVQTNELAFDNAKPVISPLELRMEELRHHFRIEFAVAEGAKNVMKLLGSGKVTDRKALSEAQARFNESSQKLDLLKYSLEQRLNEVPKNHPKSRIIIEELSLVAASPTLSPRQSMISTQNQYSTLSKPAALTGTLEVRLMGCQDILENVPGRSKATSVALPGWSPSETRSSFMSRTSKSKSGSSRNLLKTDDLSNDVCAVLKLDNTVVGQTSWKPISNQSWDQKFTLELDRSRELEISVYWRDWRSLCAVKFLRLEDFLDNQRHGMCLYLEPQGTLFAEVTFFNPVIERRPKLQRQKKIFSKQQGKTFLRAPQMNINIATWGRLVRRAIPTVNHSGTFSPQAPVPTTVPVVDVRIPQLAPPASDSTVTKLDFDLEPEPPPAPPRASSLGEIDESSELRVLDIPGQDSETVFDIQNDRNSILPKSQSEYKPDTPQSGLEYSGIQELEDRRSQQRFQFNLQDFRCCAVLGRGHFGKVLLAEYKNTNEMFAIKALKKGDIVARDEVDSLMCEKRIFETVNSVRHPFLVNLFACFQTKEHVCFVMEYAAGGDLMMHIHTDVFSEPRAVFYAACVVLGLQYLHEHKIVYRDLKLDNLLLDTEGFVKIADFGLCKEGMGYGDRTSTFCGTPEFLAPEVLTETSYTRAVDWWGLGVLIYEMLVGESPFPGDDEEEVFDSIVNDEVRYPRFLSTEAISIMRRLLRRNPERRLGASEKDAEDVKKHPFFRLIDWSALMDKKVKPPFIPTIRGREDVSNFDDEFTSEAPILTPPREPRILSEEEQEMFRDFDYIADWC

panel of 468 kinases [8] = biological target: T8, panel of 468 kinases (Homo sapiens, UniProt Q7L7X3); settings: TAOK1; 1 μM; read-out: % control
T8 construct: purchased KINOMEscan (ScanMAX) service
T8 sequence (Q7L7X3 1-1001): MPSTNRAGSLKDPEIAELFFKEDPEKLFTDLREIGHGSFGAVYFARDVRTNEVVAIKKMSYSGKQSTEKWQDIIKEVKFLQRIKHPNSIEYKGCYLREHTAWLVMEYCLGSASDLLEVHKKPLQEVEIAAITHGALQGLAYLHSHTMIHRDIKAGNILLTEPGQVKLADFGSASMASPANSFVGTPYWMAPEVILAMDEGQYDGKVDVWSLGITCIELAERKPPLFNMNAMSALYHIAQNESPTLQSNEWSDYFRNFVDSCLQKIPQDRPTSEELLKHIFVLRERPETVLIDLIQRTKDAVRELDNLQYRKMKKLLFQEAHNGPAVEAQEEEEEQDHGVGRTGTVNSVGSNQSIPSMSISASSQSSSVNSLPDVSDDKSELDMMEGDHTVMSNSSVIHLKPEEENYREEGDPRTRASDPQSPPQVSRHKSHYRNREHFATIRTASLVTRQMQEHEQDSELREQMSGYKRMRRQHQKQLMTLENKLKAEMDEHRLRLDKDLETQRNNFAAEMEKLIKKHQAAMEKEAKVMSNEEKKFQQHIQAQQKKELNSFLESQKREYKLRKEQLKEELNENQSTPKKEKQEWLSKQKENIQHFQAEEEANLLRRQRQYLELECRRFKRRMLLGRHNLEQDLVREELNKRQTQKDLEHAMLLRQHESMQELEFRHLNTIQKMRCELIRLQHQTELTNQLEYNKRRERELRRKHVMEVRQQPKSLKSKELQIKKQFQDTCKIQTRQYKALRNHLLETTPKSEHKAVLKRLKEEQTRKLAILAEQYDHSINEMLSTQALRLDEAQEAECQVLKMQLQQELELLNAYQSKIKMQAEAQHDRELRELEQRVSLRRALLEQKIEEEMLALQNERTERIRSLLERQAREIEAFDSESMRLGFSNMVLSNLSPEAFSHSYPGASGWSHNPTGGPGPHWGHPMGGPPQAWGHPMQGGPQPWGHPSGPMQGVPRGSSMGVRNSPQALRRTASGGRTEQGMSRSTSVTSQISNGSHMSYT

panel of 468 kinases [9] = biological target: T9, panel of 468 kinases (Homo sapiens, UniProt Q8TBX8); settings: PIP5K2C; 1 μM; read-out: % control
T9 construct: purchased KINOMEscan (ScanMAX) service
T9 sequence (Q8TBX8 1-421): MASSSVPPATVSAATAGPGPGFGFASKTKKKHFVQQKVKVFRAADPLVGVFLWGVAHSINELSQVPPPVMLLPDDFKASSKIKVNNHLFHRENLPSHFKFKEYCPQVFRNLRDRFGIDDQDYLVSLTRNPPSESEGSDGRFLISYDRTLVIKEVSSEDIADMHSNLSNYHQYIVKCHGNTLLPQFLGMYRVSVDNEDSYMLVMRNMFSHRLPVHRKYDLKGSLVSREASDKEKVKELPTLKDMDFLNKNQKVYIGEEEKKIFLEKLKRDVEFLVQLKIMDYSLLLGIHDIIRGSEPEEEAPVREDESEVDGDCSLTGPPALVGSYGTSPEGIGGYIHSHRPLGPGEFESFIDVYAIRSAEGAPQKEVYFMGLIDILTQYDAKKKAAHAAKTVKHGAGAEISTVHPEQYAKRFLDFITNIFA

SMILES	remaining binding at 1 µM (panel of 468 kinases [1]) [%]	remaining binding at 1 µM (panel of 468 kinases [2]) [%]	remaining binding at 1 µM (panel of 468 kinases [3]) [%]	remaining binding at 1 µM (panel of 468 kinases [4]; RPS6KA5(Kin.Dom.1-N-terminal)) [%]	remaining binding at 1 µM (panel of 468 kinases [4]; RPS6KA5(Kin.Dom.2-C-terminal)) [%]	remaining binding at 1 µM (panel of 468 kinases [5]) [%]	remaining binding at 1 µM (panel of 468 kinases [6]) [%]	remaining binding at 1 µM (panel of 468 kinases [7]) [%]	remaining binding at 1 µM (panel of 468 kinases [8]) [%]	remaining binding at 1 µM (panel of 468 kinases [9]) [%]
CNc1nc(Nc2ccc(S(=O)(=O)N3CCC(N4CCOCC4)CC3)cc2OC)nc2[nH]cc(Cl)c12 [Compound 12, 5-chloro-N2-(2-methoxy-4-((4-morpholinopiperidin-1-yl)sulfonyl)phenyl)-N4-methyl-7H-pyrrolo[2,3-d]pyrimidine-2,4-diamine]	75	100	100	100	69	100	100	99	81	28
CNc1nc(Nc2ccc(C(=O)N3CCC(N4CCOCC4)CC3)c3c2OCO3)nc2[nH]cc(Cl)c12 [Compound 75, (7-((5-chloro-4-(methylamino)-7H-pyrrolo[2,3-d]pyrimidin-2-yl)amino)benzo[d][1,3]dioxol-4-yl)(4-morpholinopiperidin-1-yl)methanone]	63	66	91	100	21	71	29	91	81	0
CNc1nc(Nc2ccc(P3(=O)CCN(C4CCOCC4)CC3)cc2OC)nc2[nH]cc(Cl)c12 [Compound 77, 4-(4-((5-chloro-4-(methylamino)-7H-pyrrolo[2,3-d]pyrimidin-2-yl)amino)-3-methoxyphenyl)-1-(tetrahydro-2H-pyran-4-yl)-1,4-azaphosphinane 4-oxide]	55	95	100	94	20	93	84	100	82	39
